From PMC12697872, “Rethinking the AI Paradigm for Solubility Prediction of Drug‑Like Compounds with Dual‐Perspective Modeling and Experimental Validation” (Advanced Science, 2025)
In brackets after ≈: the same amount, converted by molar mass. Several values for one entry are separate records, joined by “and”; a condition that tells them apart may be missing. Identical values can stand only once. Like-named read-outs stand apart in the source and are kept apart here.

Columns and labels:
[1] = cited from earlier work; for Class: SC2-2 dataset, aqueous solubility class 0-6; for LogS(mol/L): SC2-2 dataset (Second Solubility Challenge, loose subset), aqueous solubility
[2] = Saturation shake-flask aqueous solubility, gravimetric determination; conditions: for Experimental Class: European Pharmacopoeia solubility class from the experimental solubility; for solubility thermodynamic at 48 h: water (saturated aqueous solution); for solubility thermodynamic at 48 h / solubility at 48 h: 25 °C, water, thermodynamic from solid; for solubility at 48 h: Experimental Log S
Description: Excess solid drug was added to a vial to prepare supersaturated aqueous solutions. The vial was placed in a constant temperature mixer (Titan Technology, SD2‐100) at 25 °C and shaken for 48 h at a speed of 500 rpm. […] After equilibration, the solution was centrifugated at room temperature at 8000 rpm, and the supernatant was collected. The concentration of the supernatant was determined using the gravimetric method. A measured volume of the supernatant (e.g. 1 mL) was transferred to a pre‐weighted empty vial, dried in a vacuum oven at 70 °C, and re‐weighed. The difference between the initial and final weights represents the drug content in the saturated solution. Each compound was tested in triplicate to ensure accuracy.

[3] = cited from earlier work; for LogS(mol/L): SC2-1 dataset (Second Solubility Challenge, tight subset), aqueous solubility; for Class: SC2-1 dataset, aqueous solubility class 0-6
[4] = shaken 48 h, triplicate, Log S = base-10 logarithm of moles per liter

Compound: c1ccc2[nH]c(-c3cscn3)nc2c1 [c1ccc2[nH]c(-c3cscn3)nc2c1]
- Class [1]: 6 (Practically insoluble or insoluble (6))

Compound: CC(C)NCC(O)COc1ccc(COCCOC(C)C)cc1 (centres unmarked) [CC(C)NCC(O)COc1ccc(COCCOC(C)C)cc1]
- LogS(mol/L) [1]: -2.09 mol/L
- Class [1]: 4 (Slightly soluble (4))

Compound: CCc1ccc(CCOc2ccc(CC3SC(=O)NC3=O)cc2)nc1 (centres unmarked) [CCc1ccc(CCOc2ccc(CC3SC(=O)NC3=O)cc2)nc1]
- LogS(mol/L) [1]: -6.2 mol/L
- Class [1]: 6 (Practically insoluble or insoluble (6))

Compound: Clc1ccc(COC(Cn2ccnc2)c2ccc(Cl)cc2Cl)c(Cl)c1 (centres unmarked)
- LogS(mol/L) [1]: -5.82 mol/L
- Class [1]: 6 (Practically insoluble or insoluble (6))

Compound: OC[C@@H](O)CN1CCN(c2ccccc2)CC1 [Levodropropizine, reference compound]
- Experimental Class [2]: 2 (Soluble (2))
- Experimental Log S ([2]; single replicate of triplicate): -0.8427
- Experimental S ([2]; single replicate of triplicate): 34.3300 and 33.9500
- solubility thermodynamic at 48 h [2]: 34200 µg/mL (≈ 145 mM)
- solubility at 48 h ([2]; averaged over triplicate): 145 mM (≈ 34200 µg/mL)
- solubility at 48 h [2, 4]: 145 mM (≈ 34200 µg/mL)
- solubility at 48 h ([2]; single replicate of triplicate): 145 mM (≈ 34300 µg/mL)

Compound: COc1cc(/C=C/C(=O)CC(=O)/C=C/c2ccc(O)c(OC)c2)ccc1O
- LogS(mol/L) [1]: -5.36 mol/L
- Class [1]: 6 (Practically insoluble or insoluble (6))

Compound: O=C(c1ccc(OCCN2CCCCC2)cc1)c1c(-c2ccc(O)cc2)sc2cc(O)ccc12
- Class [1]: 6 (Practically insoluble or insoluble (6))

Compound: CCC(C)n1ncn(-c2ccc(N3CCN(c4ccc(OC[C@H]5CO[C@](Cn6cncn6)(c6ccc(Cl)cc6Cl)O5)cc4)CC3)cc2)c1=O (some centres unmarked)
- LogS(mol/L) [1]: -8.98 mol/L
- Class [1]: 6 (Practically insoluble or insoluble (6))

Compound: CCCc1nc2c(C)cc(-c3nc4ccccc4n3C)cc2n1Cc1ccc(-c2ccccc2C(=O)O)cc1
- LogS(mol/L) [1]: -6.73 mol/L
- Class [1]: 6 (Practically insoluble or insoluble (6))

Compound: Cc1cc(=O)oc2cc(O[C@@H]3O[C@H](CO)[C@@H](O)[C@H](O)[C@H]3O)ccc12 [4-methylumbelliferyl β-D-glucoside]
- Experimental Log S ([2]; averaged over triplicate): -1.8858
- Experimental S ([2]; averaged over triplicate): 4.4033
- Experimental Log S ([2]; single replicate of triplicate): -1.8647 and -1.9030 and -1.8898
- Experimental S ([2]; single replicate of triplicate): 4.6200 and 4.2300 and 4.3600

Compound: CC(C)N=c1cc2n(-c3ccc(Cl)cc3)c3ccccc3nc-2cc1Nc1ccc(Cl)cc1
- LogS(mol/L) [1]: -9.05 mol/L
- Class [1]: 6 (Practically insoluble or insoluble (6))

Compound: CC(=O)SCC(Cc1ccccc1)C(=O)NCC(=O)OCc1ccccc1 (centres unmarked) [Racecadotril, reference compound]
- Experimental Class [2]: 6 (Practically insoluble or insoluble (6))
- Experimental Log S ([2]; single replicate of triplicate): -4.1710 and -3.8226 and -3.9232
- Experimental S ([2]; single replicate of triplicate): 0.0260 and 0.0580 and 0.0460
- solubility thermodynamic at 48 h [2]: 43.3 µg/mL (≈ 0.112 mM)
- solubility at 48 h ([2]; averaged over triplicate): 0.107 mM (≈ 41.1 µg/mL)
- solubility at 48 h [2, 4]: 0.107 mM (≈ 41.1 µg/mL)

Compound: CC#C[C@]1(O)CC[C@H]2[C@@H]3CCC4=CC(=O)CCC4=C3[C@@H](c3ccc(N(C)C)cc3)C[C@@]21C
- LogS(mol/L) [1]: -5.22 mol/L
- Class [1]: 6 (Practically insoluble or insoluble (6))

Compound: CC[C@]1(c2ccccc2)OC[C@H]([C@@H]2CCCCN2)O1
- LogS(mol/L) [1]: -1.96 mol/L
- Class [1]: 4 (Slightly soluble (4))

Compound: N[C@@H](Cc1ccc(I)cc1)C(=O)O [4-Iodo-L-phenylalanine]
- Experimental Log S ([2]; averaged over triplicate): -2.7425
- Experimental S ([2]; averaged over triplicate): 0.5633
- Experimental Log S ([2]; single replicate of triplicate): -2.6716 and -2.9727 and -2.5832
- Experimental S ([2]; single replicate of triplicate): 0.6200 and 0.3100 and 0.7600

Compound: CC(=C(CCO)SSC(CCO)=C(C)N(C=O)Cc1cnc(C)nc1N)N(C=O)Cc1cnc(C)nc1N [Thiamine disulfide]
- Experimental Class [2]: 4 (Slightly soluble (4))
- Experimental Log S ([2]; single replicate of triplicate): -2.3811 and -2.3222
- Experimental S ([2]; single replicate of triplicate): 1.9700 and 2.3400 and 2.6800
- solubility thermodynamic at 48 h [2]: 2330 µg/mL (≈ 4.14 mM)
- solubility at 48 h ([2]; averaged over triplicate): 4.11 mM (≈ 2310 µg/mL)
- solubility at 48 h [2, 4]: 4.11 mM (≈ 2310 µg/mL)
- solubility at 48 h ([2]; single replicate of triplicate): 3.5 mM (≈ 1970 µg/mL)

Compound: Nc1nc2c(c(=O)[nH]1)CC=N2 [7‐Deazaguanine]
- Experimental Class [2]: 4 (Slightly soluble (4))
- solubility at 48 h [2, 4]: 16.6 mM (≈ 2490 µg/mL)

Compound: O=C(O)c1cc(-c2ccc(F)cc2F)ccc1O [O=C(O)c1cc(-c2ccc(F)cc2F)ccc1O]
- LogS(mol/L) [1]: -4.99 mol/L
- Class [1]: 6 (Practically insoluble or insoluble (6))

Compound: N[C@@H](Cc1ccc(I)cc1)C(=O)O [4‐Iodo‐L‐phenylalanine]
- Experimental Class [2]: 5 (Very slightly soluble (5))
- solubility at 48 h [2, 4]: 1.81 mM (≈ 526 µg/mL)

Compound: CCN(CC)CCOC(=O)c1ccc(N)cc1 [CCN(CC)CCOC(=O)c1ccc(N)cc1]
- LogS(mol/L) [1]: -2.3 mol/L
- Class [1]: 4 (Slightly soluble (4))

Compound: C/C=C/C1=C(C(=O)O)N2C(=O)[C@@H](NC(=O)[C@H](N)c3ccc(O)cc3)[C@H]2SC1
- LogS(mol/L) [3]: -1.68 mol/L
- Class [3]: 4 (Slightly soluble (4))

Compound: CC1=C(C(=O)O)N2C(=O)[C@@H](NC(=O)[C@H](N)C3=CCC=CC3)[C@H]2SC1
- LogS(mol/L) [3]: -1.18 mol/L
- Class [3]: 3 (Sparingly soluble (3))

Compound: O=C(CCCN1CCC(O)(c2ccc(Cl)cc2)CC1)c1ccc(F)cc1
- LogS(mol/L) [3]: -5.71 mol/L
- Class [3]: 6 (Practically insoluble or insoluble (6))
